Measured values: patent publication US20240365781A1, “SYNERGISTICALLY EFFECTIVE HERBICIDE COMPOSITION COMPRISING PELARGONIC ACID AND FLAZASULFURON” (Belchim Crop Protection NV, priority 2017, published 2024)

How the values were obtained:
Assay type in all cases: in vivo
[1] = test system: Setaria viridis; assay: post-emergence field trial under rows of apple trees, 150-200 L water/ha (Examples 10-12); settings: 20 g of active compound/ha
Method: (§1) Herbicidal activity was determined by performing a post-emergence test. […] The corresponding mixture was in the form of a spray solution. Besides, spray solutions of individual compositions comprising pelargonic acid or flazasulfuron were used.
(§2) The spray solution was applied on plants of unwanted vegetation present on fields where perennial crops were grown.
(§3) After 5 to 88 days after application of the spray solution, the degree of damage to the unwanted vegetation is rated in % of plants of unwanted vegetation that were killed. Tests were performed on test fields (field trials).

[2] = test system: Sonchus oleracea; assay: as above; settings: 20 g of active compound/ha
Method: as §1, §2, §3

[3] = test system: Chenopodium album; assay: as above; settings: 20 g of active compound/ha
Method: as §1, §2, §3

[4] = test system: Senecio vulgaris; assay: as above; settings: 20 g of active compound/ha
Method: as §1, §2, §3

[5] = test system: Trifolium repens; assay: as above; settings: 20 g of active compound/ha
Method: as §1, §2, §3

[6] = test system: Lolium multiflorum; assay: as above; settings: 20 g of active compound/ha
Method: as §1, §2, §3

[7] = test system: Capsella bursa-pastoris; assay: as above; settings: 20 g of active compound/ha
Method: as §1, §2, §3

[8] = test system: Poa annua; assay: as above; settings: 20 g of active compound/ha
Method: as §1, §2, §3

[9] = test system: Sonchus oleracea; assay: post-emergence field trial under rows of vines, 150-200 L water/ha (Examples 6-9); settings: flazasulfuron 40 g/ha
Source text: (§4) The expected activity of a given combination of two or three herbicides can be calculated as follows according to a calculation method by Colby (cf. COLBY, S. R.: “Calculating synergistic and antagonistic responses of herbicide combinations”, • Weeds 15, pages 20-22, 1967): • If X=% damage by herbicide (A) at an application rate of m g/ha, • Y=% damage by herbicide (B) at an application rate of n g/ha, • E=the expected damage by herbicides (A) and (B) at application rates of m and n […] and, • then for a combination:
(§5) Individual compositions comprising pelargonic acid or flazasulfuron are compared with a herbicide composition according to the invention comprising pelargonic acid and flazasulfuron.
as §1, §2, §3

[10] = test system: Oxalis latifolia; assay: as above; settings: flazasulfuron 40 g/ha
Source text: as §4, §5, §1, §2, §3

[11] = test system: Convolvulus arvensis; assay: as above; settings: flazasulfuron 40 g/ha
Source text: as §4, §5, §1, §2, §3

[12] = test system: Erigeron sumatrensis; assay: as above; settings: flazasulfuron 40 g/ha
Source text: as §4, §5, §1, §2, §3

[13] = 14 d, pelargonic acid 5440 g/ha
[14] = 14 d, pelargonic acid 6800 g/ha
[15] = 14 d, pelargonic acid 8160 g/ha
[16] = 14 d, pelargonic acid 10880 g/ha
[17] = 28 d, pelargonic acid 6800 g/ha

## COc1cc(OC)nc(NC(=O)NS(=O)(=O)c2ncccc2C(F)(F)F)n1 [Flazasulfuron, 1-(4,6-dimethoxypyrimidin-2-yl)-3-(3-trifluoromethyl-2-pyridylsulfonyl)urea]
[1]; Setaria viridis/6 d
  herbicidal effect (%): 10%
[1]; Setaria viridis/16 d
  herbicidal effect (%): 50%
[1]; Setaria viridis/30 d
  herbicidal effect (%): 55%
[1]; Setaria viridis/57 d
  herbicidal effect (%): 53%
[1]; Setaria viridis/78 d
  herbicidal effect (%): 43%
[2]; Sonchus oleracea/6 d
  herbicidal effect (%): 18%
[2]; Sonchus oleracea/16 d
  herbicidal effect (%): 28%
[2]; Sonchus oleracea/30 d
  herbicidal effect (%): 43%
[2]; Sonchus oleracea/57 d
  herbicidal effect (%): 23%
[2]; Sonchus oleracea/78 d
  herbicidal effect (%): 45%
[3]; Chenopodium album/6 d
  herbicidal effect (%): 13%
[3]; Chenopodium album/16 d
  herbicidal effect (%): 59%
[3]; Chenopodium album/30 d
  herbicidal effect (%): 63%
[3]; Chenopodium album/57 d
  herbicidal effect (%): 58%
[3]; Chenopodium album/78 d
  herbicidal effect (%): 64%
[4]; Senecio vulgaris/6 d
  herbicidal effect (%): 4%
[4]; Senecio vulgaris/28 d
  herbicidal effect (%): 13%
[4]; Senecio vulgaris/58 d
  herbicidal effect (%): 18%
[5]; Trifolium repens/7 d
  herbicidal effect (%): 20%
[5]; Trifolium repens/16 d
  herbicidal effect (%): 40%
[5]; Trifolium repens/26 d
  herbicidal effect (%): 63%
[5]; Trifolium repens/59 d
  herbicidal effect (%): 68%
[6]; Lolium multiflorum/5 d
  herbicidal effect (%): 0%
[6]; Lolium multiflorum/18 d
  herbicidal effect (%): 79%
[6]; Lolium multiflorum/32 d
  herbicidal effect (%): 87%
[6]; Lolium multiflorum/61 d
  herbicidal effect (%): 91%
[6]; Lolium multiflorum/88 d
  herbicidal effect (%): 89%
[7]; Capsella bursa-pastoris/6 d
  herbicidal effect (%): 16%
[7]; Capsella bursa-pastoris/16 d
  herbicidal effect (%): 45%
[7]; Capsella bursa-pastoris/30 d
  herbicidal effect (%): 55%
[7]; Capsella bursa-pastoris/57 d
  herbicidal effect (%): 58%
[8]; Poa annua/6 d
  herbicidal effect (%): 10%
[8]; Poa annua/16 d
  herbicidal effect (%): 53%
[8]; Poa annua/30 d
  herbicidal effect (%): 60%
[8]; Poa annua/57 d
  herbicidal effect (%): 58%
[8]; Poa annua/78 d
  herbicidal effect (%): 83%
[9]; [13]
  herbicidal effect: 75%
[9]; [14]
  herbicidal effect: 75%
[9]; [15]
  herbicidal effect: 75%
[9]; [16]
  herbicidal effect: 75%
[9]; 27 d, pelargonic acid 5440 g/ha
  herbicidal effect: 74%
[9]; 27 d, pelargonic acid 6800 g/ha
  herbicidal effect: 74%
[9]; 27 d, pelargonic acid 8160 g/ha
  herbicidal effect: 74%
[9]; 27 d, pelargonic acid 10880 g/ha
  herbicidal effect: 74%
[9]; 56 d, pelargonic acid 5440 g/ha
  herbicidal effect: 70%
[9]; 56 d, pelargonic acid 6800 g/ha
  herbicidal effect: 70%
[9]; 56 d, pelargonic acid 8160 g/ha
  herbicidal effect: 70%
[9]; 56 d, pelargonic acid 10880 g/ha
  herbicidal effect: 70%
[10]; 7 d, pelargonic acid 6800 g/ha
  herbicidal effect: 29%
[10]; 7 d, pelargonic acid 8160 g/ha
  herbicidal effect: 29%
[10]; 7 d, pelargonic acid 10880 g/ha
  herbicidal effect: 29%
[10]; [13]
  herbicidal effect: 49%
[10]; [14]
  herbicidal effect: 49%
[10]; [15]
  herbicidal effect: 49%
[10]; [16]
  herbicidal effect: 49%
[10]; [17]
  herbicidal effect: 44%
[11]; 7 d, pelargonic acid 5440 g/ha
  herbicidal effect: 73%
[11]; 7 d, pelargonic acid 6800 g/ha
  herbicidal effect: 73%
[11]; 7 d, pelargonic acid 8160 g/ha
  herbicidal effect: 73%
[11]; [13]
  herbicidal effect: 88%
[11]; [14]
  herbicidal effect: 88%
[11]; [15]
  herbicidal effect: 88%
[11]; [16]
  herbicidal effect: 88%
[11]; [17]
  herbicidal effect: 74%
[11]; 28 d, pelargonic acid 8160 g/ha
  herbicidal effect: 74%
[11]; 28 d, pelargonic acid 10880 g/ha
  herbicidal effect: 74%
[11]; 65 d, pelargonic acid 5440 g/ha
  herbicidal effect: 0%
[11]; 65 d, pelargonic acid 6800 g/ha
  herbicidal effect: 0%
[11]; 65 d, pelargonic acid 8160 g/ha
  herbicidal effect: 0%
[11]; 65 d, pelargonic acid 10880 g/ha
  herbicidal effect: 0%
[12]; 5 d, pelargonic acid 5440 g/ha
  herbicidal effect: 18%
[12]; 5 d, pelargonic acid 8160 g/ha
  herbicidal effect: 18%
[12]; 15 d, pelargonic acid 5440 g/ha
  herbicidal effect: 98%
[12]; 15 d, pelargonic acid 6800 g/ha
  herbicidal effect: 98%
[12]; 15 d, pelargonic acid 8160 g/ha
  herbicidal effect: 98%
